Experimental data taken from publication PMC3804352 (ACS medicinal chemistry letters, 2013).
“Also recorded” adds a separate entry of the source. Where two headings read alike, the source gives them in different places.

What was measured:
[1] = in mice; cited from earlier work
[2] = in vivo, iv; cited from earlier work
[3] = cited from earlier work
[4] = Stability in mouse serum at 37 °C; assay type: in vitro ADME
[5] = In vivo pharmacokinetic study, single IV or IP injection to healthy mice
human cancer cells = conditions: cited from earlier work
[6] = Metabolism by human liver S9 fraction; assay type: in vitro ADME
[7] = Solubility in aqueous buffers; assay type: physicochemical
[8] = Stability in human liver cytosolic fraction; assay type: in vitro ADME; conditions: r^2 = 0.24, p = 0.10
[9] = Metabolism by human liver microsomes; assay type: in vitro ADME
mice = experiment: Toxicity to mice in efficacy and PK studies; assay type: in vivo; conditions: dosing regime of efficacy study (5-10 mg/kg once daily) and PK study
[10] = assay type: in vivo, mice; conditions: at the termination of efficacy trials
Plasmodium yoelii = experiment: In vivo efficacy in mice infected with Plasmodium yoelii, parasite load by FACS; set-up: species or system Swiss webster female mice
P. falciparum = conditions: read-out: in vitro IC50; cited from earlier work
parasitemia = conditions: cited from earlier work

Q: For C[C@H]1Cc2c([nH]c3cc(Cl)c(F)cc23)[C@@]2(N1)C(=O)Nc1ccc(Cl)cc12 [NITD609, spirotetrahydro-β-carboline NITD609], which clearance rate [1] is on record?
A: 9.8 mL/min/kg

Q: With C[C@H]1[C@H](OC(=O)CCC(=O)O)O[C@@H]2O[C@@]3(C)CC[C@H]4[C@H](C)CC[C@@H]1[C@@]24OO3 [artesunate] as the compound, how does the half-life [2] read?
A: less than 10 min

Q: For CCN(CC)CCCC(C)Nc1ccnc2cc(Cl)ccc12 (centres unmarked) [chloroquine], which “apparent volume of distribution” value [3] is on record?
A: 200 L/kg

Q: With CC1=C2Cc3cc(ccc3O)C(=O)O[C@H](C(C)(C)Br)CC[C@](C)(O)[C@H](Br)CC[C@]2(C)[C@@H](Br)CC1 [compound 1, bromophycolide A] as the compound, how does the “loss after incubation in mouse serum” value ([4]; 37 °C, 24 h (r^2 = 0.20, p=0.27)) read?
A: no significant loss

Q: What about the “stability in mouse serum” value ([4]; over 24 h) of the same compound?
A: stable

Q: And the bioavailability ([5]; IP vs IV dosing)?
A: good bioavailability

Q: What about the “Cp^0” value ([5]; IV, 23 mg/kg, plasma) of the same compound?
A: 24000 ± 6000 ng/mL

Q: What about the “differential selectivity among eukaryotic cell lines” value (human cancer cells) of the same compound?
A: 10 fold

Q: And the IC50 (human cancer cells; human cancer cells)?
A: > 6000 nM

Q: And the “metabolism by human liver sub-cellular fractions” value ([6]; after 4 h)?
A: negligible metabolism

Q: And the half-life ([6]; human, human liver S9 fraction)?
A: 9.5 ± 0.8 h

Q: And the CLint scaled at 24 h, 10 µM ([6]; human, human liver S9 fraction, CLint, S9 fraction with UDPGA)?
A: 1.1 ± 0.1 mL/min/kg

Q: What about the “solubility in aqueous buffers” value [7] of the same compound?
A: poor solubility

Q: What about the “stability in the presence of the human liver cytosolic fraction” value [8] of the same compound?
A: stable

Q: And the CLint scaled at 24 h, 10 µM ([9]; human, human liver microsomes)?
A: 1.6 ± 0.5 mL/min/kg

Q: And the “stability in the presence of human microsomes” value ([9]; summary statement)?
A: moderately stable

Q: What about the toxicity to mice (mice) of the same compound?
A: lack of mouse toxicity; also recorded: non-toxic

Q: What about the “concentration in blood and plasma of infected mice” value [10] of the same compound?
A: below the limit of detection

Q: And the “parasitemia in treated mice” value (Plasmodium yoelii; after the second dose, 10 mg/kg)?
A: 10.0 ± 0.5%

Q: What about the “final parasitemia (FACS)” value (Plasmodium yoelii; dosed at 10 mg/kg, control 32 ± 2 %) of the same compound?
A: 17 ± 4%

Q: With CC[C@H](C)C(=O)O[C@@H]1[C@H]2C(C)=CC(=O)[C@@H](O)[C@]2(C)[C@H]2[C@@H](O)[C@H](O)[C@@]3(C)OC[C@@]24[C@@H]1OC(=O)[C@H](OC(=O)[C@@H](C)CC)[C@@H]34 [simalikalactone E] as the compound, how does the IC50 (P. falciparum) read?
A: 24 to 68 nM

Q: And the “reduction of parasitemia in vivo” value (parasitemia; 0.5 mg/kg IP dosing)?
A: 50%

Q: And the “reduction of parasitemia in vivo” value (parasitemia; 1 mg/kg oral dosing)?
A: 50%
